Test results published in ChEMBL document CHEMBL5653615 (J Biol Chem, 2013).

Key:
[1] = biological target: T1, Tyrosine-protein kinase TXK (Homo sapiens) (UniProt P42681); test: Inhibition of human TXK at 18.6 nM by HotSpot assay relative to control
T1 sequence (whole entry): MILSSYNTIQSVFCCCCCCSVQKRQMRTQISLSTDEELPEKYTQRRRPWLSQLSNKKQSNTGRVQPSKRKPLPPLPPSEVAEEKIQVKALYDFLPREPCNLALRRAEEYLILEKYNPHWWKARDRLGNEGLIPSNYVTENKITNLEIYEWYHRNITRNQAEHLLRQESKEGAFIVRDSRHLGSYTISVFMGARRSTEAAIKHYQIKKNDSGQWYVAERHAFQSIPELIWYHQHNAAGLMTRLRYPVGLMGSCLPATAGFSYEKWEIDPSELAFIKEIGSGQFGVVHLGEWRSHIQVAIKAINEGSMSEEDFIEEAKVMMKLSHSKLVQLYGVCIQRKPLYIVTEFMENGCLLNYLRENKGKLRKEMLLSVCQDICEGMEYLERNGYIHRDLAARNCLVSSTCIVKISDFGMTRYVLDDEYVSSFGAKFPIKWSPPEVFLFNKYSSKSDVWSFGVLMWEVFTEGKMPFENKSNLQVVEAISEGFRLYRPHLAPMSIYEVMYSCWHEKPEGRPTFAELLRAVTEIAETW

[2] = biological target: Serine/threonine-protein kinase 26 (Homo sapiens) (UniProt Q9P289); test: Inhibition of human MST4 at 18.6 nM by HotSpot assay relative to control
[3] = biological target: T2, Mitogen-activated protein kinase 13 (Homo sapiens) (UniProt O15264); test: Inhibition of human MAPK13 at 18.6 nM by HotSpot assay relative to control
T2 sequence (whole entry): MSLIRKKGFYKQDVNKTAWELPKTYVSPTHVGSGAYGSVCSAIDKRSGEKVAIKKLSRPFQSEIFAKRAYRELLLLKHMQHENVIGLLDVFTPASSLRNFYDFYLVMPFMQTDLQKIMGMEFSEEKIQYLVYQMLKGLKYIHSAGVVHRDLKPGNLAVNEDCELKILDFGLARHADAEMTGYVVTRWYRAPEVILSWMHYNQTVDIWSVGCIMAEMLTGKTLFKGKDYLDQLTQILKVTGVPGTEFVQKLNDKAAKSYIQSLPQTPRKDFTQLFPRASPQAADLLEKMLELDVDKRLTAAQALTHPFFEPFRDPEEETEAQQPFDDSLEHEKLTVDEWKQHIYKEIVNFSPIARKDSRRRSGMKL

[4] = biological target: Fibroblast growth factor receptor 3 (Homo sapiens) (UniProt P22607); test: Inhibition of human FGFR3 at 18.6 nM by HotSpot assay relative to control
[5] = biological target: T3, MAP/microtubule affinity-regulating kinase 4 (Homo sapiens) (UniProt Q96L34); test: Inhibition of human MARK4 at 18.6 nM by HotSpot assay relative to control
T3 sequence (whole entry): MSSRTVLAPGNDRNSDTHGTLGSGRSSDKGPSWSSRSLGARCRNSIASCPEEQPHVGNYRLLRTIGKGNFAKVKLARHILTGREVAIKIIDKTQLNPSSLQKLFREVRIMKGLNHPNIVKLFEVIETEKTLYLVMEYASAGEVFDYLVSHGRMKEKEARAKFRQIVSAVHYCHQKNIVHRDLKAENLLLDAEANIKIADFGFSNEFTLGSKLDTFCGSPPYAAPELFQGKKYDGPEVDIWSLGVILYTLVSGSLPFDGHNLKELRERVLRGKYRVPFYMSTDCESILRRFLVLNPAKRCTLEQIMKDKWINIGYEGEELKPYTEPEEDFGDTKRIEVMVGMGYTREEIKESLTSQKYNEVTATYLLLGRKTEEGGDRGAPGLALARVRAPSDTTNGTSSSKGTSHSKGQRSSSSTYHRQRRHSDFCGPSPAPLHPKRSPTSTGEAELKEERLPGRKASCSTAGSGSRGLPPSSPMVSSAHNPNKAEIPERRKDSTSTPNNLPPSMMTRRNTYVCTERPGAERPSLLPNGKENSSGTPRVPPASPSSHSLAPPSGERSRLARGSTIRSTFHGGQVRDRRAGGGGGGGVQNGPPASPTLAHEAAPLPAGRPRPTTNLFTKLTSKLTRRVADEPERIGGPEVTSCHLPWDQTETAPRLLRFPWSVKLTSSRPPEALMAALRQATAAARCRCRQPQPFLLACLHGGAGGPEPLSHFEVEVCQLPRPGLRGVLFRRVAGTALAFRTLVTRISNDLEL

[6] = biological target: Ribosomal protein S6 kinase beta-2 (Homo sapiens) (UniProt Q9UBS0); test: Inhibition of human RPS6KB2 at 18.6 nM by HotSpot assay relative to control
[7] = biological target: Mitogen-activated protein kinase 8 (Homo sapiens) (UniProt P45983); test: Inhibition of human JNK1 at 18.6 nM by HotSpot assay relative to control
[8] = biological target: Mitogen-activated protein kinase kinase kinase 9 (Homo sapiens) (UniProt P80192); test: Inhibition of human MAP3K9 at 1.82 nM by HotSpot assay relative to control
[9] = biological target: T4, Phosphorylase b kinase gamma catalytic chain, liver/testis isoform (Homo sapiens) (UniProt P15735); test: Inhibition of human PHKg2 at 1.82 nM by HotSpot assay relative to control
T4 sequence (whole entry): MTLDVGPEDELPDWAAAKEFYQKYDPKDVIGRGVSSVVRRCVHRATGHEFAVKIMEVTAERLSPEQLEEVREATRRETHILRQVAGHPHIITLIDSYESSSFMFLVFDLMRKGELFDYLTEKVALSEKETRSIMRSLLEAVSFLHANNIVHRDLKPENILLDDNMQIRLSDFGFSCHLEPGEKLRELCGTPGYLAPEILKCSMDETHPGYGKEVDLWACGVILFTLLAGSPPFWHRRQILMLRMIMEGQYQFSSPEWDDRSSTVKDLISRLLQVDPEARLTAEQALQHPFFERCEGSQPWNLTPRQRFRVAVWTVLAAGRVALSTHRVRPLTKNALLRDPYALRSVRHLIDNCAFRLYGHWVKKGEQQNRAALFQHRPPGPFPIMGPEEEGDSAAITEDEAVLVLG

[10] = biological target: Serine/threonine-protein kinase PAK 5 (Homo sapiens) (UniProt Q9P286); test: Inhibition of human PAK5 at 1.82 nM by HotSpot assay relative to control
Homo sapiens = species: Homo sapiens; test: Inhibition of human CDK2/cyclin A at 1.82 nM by HotSpot assay relative to control
[11] = biological target: Serine/threonine-protein kinase pim-2 (Homo sapiens) (UniProt Q9P1W9); test: Inhibition of human PIM2 at 1.82 nM by HotSpot assay relative to control
[12] = biological target: Vascular endothelial growth factor receptor 1 (Homo sapiens) (UniProt P17948); test: Inhibition of human FLT1 at 1.82 nM by HotSpot assay relative to control
[13] = biological target: Dual specificity protein kinase CLK2 (Homo sapiens) (UniProt P49760); conditions: dose 1.82 nM
Description: Inhibition of human CLK2 at 1.82 nM by HotSpot assay relative to control

[14] = biological target: Dual specificity protein kinase CLK4 (Homo sapiens) (UniProt Q9HAZ1); conditions: dose 1.82 nM
Description: Inhibition of human CLK4 at 1.82 nM by HotSpot assay relative to control

Mitogen-activated protein kinase kinase kinase 9 (Homo sapiens), sequence (P80192 whole entry, looked up, canonical isoform): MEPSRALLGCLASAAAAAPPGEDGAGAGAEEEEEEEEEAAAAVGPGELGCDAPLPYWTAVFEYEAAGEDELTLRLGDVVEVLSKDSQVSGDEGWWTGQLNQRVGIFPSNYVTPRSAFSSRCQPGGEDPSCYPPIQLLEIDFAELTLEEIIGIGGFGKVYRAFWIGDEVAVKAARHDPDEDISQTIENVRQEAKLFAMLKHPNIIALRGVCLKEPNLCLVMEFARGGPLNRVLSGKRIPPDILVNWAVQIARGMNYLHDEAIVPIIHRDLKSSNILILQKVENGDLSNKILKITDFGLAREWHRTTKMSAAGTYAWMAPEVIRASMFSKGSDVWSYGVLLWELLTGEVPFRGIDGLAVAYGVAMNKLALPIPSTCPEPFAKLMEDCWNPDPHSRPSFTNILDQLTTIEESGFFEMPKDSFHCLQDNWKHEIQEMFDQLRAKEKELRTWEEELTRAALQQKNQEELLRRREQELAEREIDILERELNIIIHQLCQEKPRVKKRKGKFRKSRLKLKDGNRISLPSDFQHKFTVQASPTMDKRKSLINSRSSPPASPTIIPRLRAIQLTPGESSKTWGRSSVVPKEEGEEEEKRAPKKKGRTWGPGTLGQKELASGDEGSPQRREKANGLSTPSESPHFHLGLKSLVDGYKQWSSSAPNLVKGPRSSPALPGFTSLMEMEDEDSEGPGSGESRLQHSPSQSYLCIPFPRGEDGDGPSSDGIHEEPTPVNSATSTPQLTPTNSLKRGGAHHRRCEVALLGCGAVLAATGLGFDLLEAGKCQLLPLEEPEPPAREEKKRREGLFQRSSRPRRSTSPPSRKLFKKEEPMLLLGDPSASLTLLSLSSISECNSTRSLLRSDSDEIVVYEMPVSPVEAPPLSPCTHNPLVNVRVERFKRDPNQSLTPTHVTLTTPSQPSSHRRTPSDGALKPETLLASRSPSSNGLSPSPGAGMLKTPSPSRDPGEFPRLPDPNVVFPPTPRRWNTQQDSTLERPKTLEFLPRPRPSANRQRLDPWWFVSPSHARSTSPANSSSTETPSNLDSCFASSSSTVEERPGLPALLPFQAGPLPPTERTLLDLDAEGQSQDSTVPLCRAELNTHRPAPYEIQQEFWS
Dual specificity protein kinase CLK2 (Homo sapiens), sequence (P49760 whole entry, looked up): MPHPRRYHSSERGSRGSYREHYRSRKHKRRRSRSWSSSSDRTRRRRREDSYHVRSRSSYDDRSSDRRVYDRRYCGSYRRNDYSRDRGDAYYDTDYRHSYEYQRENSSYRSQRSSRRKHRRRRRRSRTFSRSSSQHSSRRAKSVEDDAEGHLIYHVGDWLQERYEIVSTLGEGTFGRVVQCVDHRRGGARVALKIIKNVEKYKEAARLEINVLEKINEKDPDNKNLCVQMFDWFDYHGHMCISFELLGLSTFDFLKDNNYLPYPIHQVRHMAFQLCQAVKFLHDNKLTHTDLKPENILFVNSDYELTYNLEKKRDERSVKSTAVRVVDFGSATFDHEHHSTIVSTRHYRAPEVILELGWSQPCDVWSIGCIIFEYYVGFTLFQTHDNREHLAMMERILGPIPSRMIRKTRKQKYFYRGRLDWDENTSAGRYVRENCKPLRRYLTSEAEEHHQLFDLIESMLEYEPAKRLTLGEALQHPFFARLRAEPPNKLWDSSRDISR
Ribosomal protein S6 kinase beta-2 (Homo sapiens), sequence (Q9UBS0 whole entry): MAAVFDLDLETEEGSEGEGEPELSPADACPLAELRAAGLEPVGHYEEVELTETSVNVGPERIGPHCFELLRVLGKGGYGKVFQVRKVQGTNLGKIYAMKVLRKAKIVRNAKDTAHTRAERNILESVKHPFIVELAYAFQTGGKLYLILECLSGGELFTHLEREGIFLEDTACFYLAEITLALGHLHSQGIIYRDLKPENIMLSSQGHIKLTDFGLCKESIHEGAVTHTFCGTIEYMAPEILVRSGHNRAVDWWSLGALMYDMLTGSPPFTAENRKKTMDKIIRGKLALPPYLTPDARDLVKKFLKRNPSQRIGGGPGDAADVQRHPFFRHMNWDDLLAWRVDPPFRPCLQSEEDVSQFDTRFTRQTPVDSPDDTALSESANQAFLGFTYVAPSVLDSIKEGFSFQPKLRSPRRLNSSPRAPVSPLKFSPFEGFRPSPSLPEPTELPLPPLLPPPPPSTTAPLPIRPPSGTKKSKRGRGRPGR
Mitogen-activated protein kinase 8 (Homo sapiens), sequence (P45983 whole entry): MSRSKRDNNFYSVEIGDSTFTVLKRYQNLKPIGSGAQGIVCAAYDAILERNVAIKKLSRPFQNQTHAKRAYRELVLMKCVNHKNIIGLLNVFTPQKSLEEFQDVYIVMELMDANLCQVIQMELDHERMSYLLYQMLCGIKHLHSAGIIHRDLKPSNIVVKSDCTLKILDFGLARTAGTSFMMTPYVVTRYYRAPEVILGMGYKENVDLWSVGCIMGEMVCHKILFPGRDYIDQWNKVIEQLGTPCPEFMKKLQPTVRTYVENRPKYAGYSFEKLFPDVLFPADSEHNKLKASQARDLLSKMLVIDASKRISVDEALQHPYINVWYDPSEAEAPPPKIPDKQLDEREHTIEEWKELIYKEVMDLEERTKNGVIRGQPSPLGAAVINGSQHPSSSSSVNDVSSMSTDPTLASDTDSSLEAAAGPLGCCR
Serine/threonine-protein kinase pim-2 (Homo sapiens), sequence (Q9P1W9 whole entry, looked up): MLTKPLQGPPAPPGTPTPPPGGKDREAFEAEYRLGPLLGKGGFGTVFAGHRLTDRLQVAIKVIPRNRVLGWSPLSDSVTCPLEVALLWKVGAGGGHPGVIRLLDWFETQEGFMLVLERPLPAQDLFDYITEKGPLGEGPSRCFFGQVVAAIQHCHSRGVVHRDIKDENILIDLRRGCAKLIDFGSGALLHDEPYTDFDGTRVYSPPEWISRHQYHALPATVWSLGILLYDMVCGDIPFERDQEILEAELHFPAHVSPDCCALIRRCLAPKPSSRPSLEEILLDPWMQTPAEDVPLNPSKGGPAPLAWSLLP
Serine/threonine-protein kinase 26 (Homo sapiens), sequence (Q9P289 2-416 limits assumed): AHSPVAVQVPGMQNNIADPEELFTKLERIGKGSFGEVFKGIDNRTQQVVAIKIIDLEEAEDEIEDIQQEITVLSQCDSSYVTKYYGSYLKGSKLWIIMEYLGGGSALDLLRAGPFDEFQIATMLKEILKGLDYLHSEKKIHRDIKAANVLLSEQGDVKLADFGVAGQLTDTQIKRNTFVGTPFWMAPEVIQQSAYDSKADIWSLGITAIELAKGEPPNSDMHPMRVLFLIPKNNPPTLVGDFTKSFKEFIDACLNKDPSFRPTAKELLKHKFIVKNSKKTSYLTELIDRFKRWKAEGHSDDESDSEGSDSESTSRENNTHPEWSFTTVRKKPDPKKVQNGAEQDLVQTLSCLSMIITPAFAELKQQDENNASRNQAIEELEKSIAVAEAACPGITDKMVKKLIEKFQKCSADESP
Serine/threonine-protein kinase PAK 5 (Homo sapiens), sequence (Q9P286 whole entry, looked up): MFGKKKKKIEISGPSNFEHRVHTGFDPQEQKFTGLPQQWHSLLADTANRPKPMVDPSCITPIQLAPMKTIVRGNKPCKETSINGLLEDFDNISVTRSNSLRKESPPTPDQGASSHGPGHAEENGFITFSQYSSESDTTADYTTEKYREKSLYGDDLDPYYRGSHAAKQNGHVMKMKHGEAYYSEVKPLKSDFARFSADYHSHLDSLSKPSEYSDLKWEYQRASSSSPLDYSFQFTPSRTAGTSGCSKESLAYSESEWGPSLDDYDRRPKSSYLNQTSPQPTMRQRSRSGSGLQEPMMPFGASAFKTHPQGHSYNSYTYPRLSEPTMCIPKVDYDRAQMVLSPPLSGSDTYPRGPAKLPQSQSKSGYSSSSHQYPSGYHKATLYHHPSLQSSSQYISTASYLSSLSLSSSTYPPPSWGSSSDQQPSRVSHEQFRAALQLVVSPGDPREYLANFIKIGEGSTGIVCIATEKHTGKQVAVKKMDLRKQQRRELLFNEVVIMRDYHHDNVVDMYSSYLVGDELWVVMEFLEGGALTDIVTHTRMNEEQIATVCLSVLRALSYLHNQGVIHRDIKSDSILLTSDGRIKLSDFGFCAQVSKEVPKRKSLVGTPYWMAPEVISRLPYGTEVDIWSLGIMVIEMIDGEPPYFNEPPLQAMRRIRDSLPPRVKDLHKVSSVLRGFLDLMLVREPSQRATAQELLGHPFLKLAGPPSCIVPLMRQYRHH
Fibroblast growth factor receptor 3 (Homo sapiens), sequence (P22607 23-806 limits assumed): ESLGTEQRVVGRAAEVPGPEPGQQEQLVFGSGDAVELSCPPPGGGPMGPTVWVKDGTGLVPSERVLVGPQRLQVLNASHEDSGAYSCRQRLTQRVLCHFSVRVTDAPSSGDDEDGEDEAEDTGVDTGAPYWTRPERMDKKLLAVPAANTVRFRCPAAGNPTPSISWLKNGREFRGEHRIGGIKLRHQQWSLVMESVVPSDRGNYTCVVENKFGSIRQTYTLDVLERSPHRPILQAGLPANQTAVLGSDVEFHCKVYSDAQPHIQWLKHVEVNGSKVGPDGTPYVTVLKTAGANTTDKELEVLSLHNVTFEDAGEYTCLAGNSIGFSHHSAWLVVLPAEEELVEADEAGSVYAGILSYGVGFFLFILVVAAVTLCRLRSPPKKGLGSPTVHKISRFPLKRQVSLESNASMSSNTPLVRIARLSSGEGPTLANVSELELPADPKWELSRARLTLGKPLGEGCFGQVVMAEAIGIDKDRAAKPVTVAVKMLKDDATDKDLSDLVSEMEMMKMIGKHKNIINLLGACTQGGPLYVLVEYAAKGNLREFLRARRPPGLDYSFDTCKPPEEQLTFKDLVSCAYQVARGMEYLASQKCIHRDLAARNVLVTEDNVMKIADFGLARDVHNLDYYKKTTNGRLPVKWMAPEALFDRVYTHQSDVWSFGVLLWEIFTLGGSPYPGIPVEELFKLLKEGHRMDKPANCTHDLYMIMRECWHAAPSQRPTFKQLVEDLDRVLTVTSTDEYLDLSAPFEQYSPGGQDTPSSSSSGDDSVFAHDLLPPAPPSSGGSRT

Structure (SMILES): C[C@]1(O)C[C@@H](c2nc(-c3ccc4ccc(-c5ccccc5)nc4c3)c3c(N)nccn32)C1
- inhibition [1]: -8.77%
- inhibition [2]: -2.21%
- inhibition [3]: -4.06%
- inhibition [4]: 8.2%
- inhibition [5]: 7.12%
- inhibition [6]: 0.94%
- inhibition [7]: -1.1%

Structure (SMILES): C[C@@]1(C(=O)Nc2ccc(F)nc2)CCCN1c1nc(Nc2cc(C3CC3)n[nH]2)c2cccn2n1
- inhibition [8]: 2.63%
- inhibition [9]: -4.64%
- inhibition [10]: -4.48%
- inhibition (Homo sapiens): 0.69%
- inhibition [11]: -3.22%
- inhibition [12]: -4.89%
- inhibition [13]: -1.7%
- inhibition [14]: -10%
